This data set is described as follows: Serum testosterone responder analysis after oral dosing (Table 3). In kind it is in vivo, human. As to the method: Some of the dosage forms of compositions described herein comprising or prepared from (17-β)-3-Oxoandrost-4-en-17-yl tridecanoate were administered to human subjects as a single dose of the esters to subjects. Serial blood samples were drawn at predetermined time (e.g., t=0, 12, 24, etc.) and analyzed for testosterone concentration using a validated HPLC-MS/MS analytical method. The Cmax, Cavg t1-t2, Tmax and AUCt1-t2 are calculated for testosterone in the serum of the subjects. Pharmacokinetic and statistical analyses are performed on the data obtained from the subjects. The pharmacokinetic parameters are defined as follows: • AUCt1-t2: The area under the serum concentration versus time curve, from time t1 (in hours) to time t2 (in hours) measurable concentration of the administered drug, as calculated by the linear trapezoidal method. […] This represents the average serum testosterone level over a period starting from time 0 (zero) hours to […] post-administration of dose. It should also be noted that Cavg t0-t24 is also referred to as simply “Cavg” in this invention. • Cavg t0-t12: The average serum concentration of testosterone obtained by dividing the AUCt0-t12 value by 12. This represents the average serum testosterone level over a period starting from time 0 (zero) hours to […] post-administration of dose. • Cavg t12-24: The average serum concentration of testosterone obtained by dividing the AUCt12-t24 value by 12. This represents the average serum testosterone level over the second half of the 24-hours post-administration of dose period; i.e., from a period starting from time 12 hours to time 24 hours post-administration of dose.

[1] abbreviates: starting dose 100 (±50) mg T equivalent QD or BID.
Where [2] appears, read: starting dose 300 (±50) mg T equivalent QD.
Setting [3] is: starting dose 350 (±100) mg T equivalent BID.
[4] abbreviates: starting dose 1000 (±200) mg T equivalent QD or BID.

Regarding `CCCCCCCCCCCCC(=O)O[C@H]1CC[C@H]2[C@@H]3CCC4=CC(=O)CC[C@]4(C)[C@H]3CC[C@]12C` [(17-β)-3-Oxoandrost-4-en-17-yl tridecanoate], the “% Responders with Cave t0-t24 (ng/dL) 300-1140” value is recorded as 50-65% under setting [1]; 100% (starting dose 300 (±50) mg T equivalent QD, 12-20% EAPI formulation); 100% under setting [3]; 100% under setting [4]. The “% Responders with Cmax (ng/dL) 1800-2500” value is, setting by setting: under setting [1], 0-5%; under setting [2], 0-5%; under setting [3], 0-5%; under setting [4], 20-30%. Also, the “% Responders with Cmax (ng/dL) >2500” value by setting is: under setting [1], 0-1%; under setting [2], 0-1%; under setting [3], 0-1%; under setting [4], 60-80%. In addition, the “% Responders with Cmax (ng/dL) ≤1500” value is, setting by setting: under setting [1], 100%; under setting [2], 100%; under setting [3], 100%; under setting [4], 0%.

The record behind these values is US20200046731A1, “BI[…] STATE (17- β)-HYDROXY-4-ANDROSTEN-3-ONE ESTERS” (Lipocine Inc., priority 2014, published 2020).
